From ChEMBL document CHEMBL3414448, “Advances in the discovery of novel antimicrobials targeting the assembly of bacterial cell division protein FtsZ” (Eur J Med Chem, 2015)

Experiments:
[1] = target: T1, Cell division protein FtsZ (Escherichia coli K-12) (UniProt P0A9A6); assay: Inhibition of Escherichia coli FtsZ assembly
T1 sequence (whole entry): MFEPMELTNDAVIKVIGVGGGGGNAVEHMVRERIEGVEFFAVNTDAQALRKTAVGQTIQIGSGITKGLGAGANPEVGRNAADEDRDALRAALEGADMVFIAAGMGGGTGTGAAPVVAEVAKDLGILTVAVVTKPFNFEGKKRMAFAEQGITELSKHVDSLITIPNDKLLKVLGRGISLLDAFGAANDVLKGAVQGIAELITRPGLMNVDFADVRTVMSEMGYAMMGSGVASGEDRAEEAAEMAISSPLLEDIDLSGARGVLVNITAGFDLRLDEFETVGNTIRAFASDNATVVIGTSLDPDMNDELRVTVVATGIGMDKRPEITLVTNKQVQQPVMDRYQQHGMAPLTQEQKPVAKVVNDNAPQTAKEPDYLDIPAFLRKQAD

[2] = target: T2, Cell division protein FtsZ (Staphylococcus aureus) (UniProt P0A031); assay: Inhibition of FtsZ in methicillin-resistant Staphylococcus aureus assessed as reduction in methicillin MIC (reference value: 32 ug/ml)
T2 sequence (whole entry): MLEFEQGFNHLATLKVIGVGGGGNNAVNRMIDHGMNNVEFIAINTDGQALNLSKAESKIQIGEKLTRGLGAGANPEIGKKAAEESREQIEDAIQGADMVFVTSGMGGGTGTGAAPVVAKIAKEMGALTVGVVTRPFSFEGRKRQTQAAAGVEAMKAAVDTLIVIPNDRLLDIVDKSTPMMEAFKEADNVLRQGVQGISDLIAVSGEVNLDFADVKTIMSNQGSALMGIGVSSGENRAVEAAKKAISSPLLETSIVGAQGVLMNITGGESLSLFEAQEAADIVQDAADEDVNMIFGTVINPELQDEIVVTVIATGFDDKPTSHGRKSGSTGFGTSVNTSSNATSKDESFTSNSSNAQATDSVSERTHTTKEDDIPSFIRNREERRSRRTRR

[3] = target: T3, Cell division protein FtsZ (Bacillus subtilis (strain 168)) (UniProt P17865); assay: Inhibition of Bacillus subtilis FtsZ GTPase activity; conditions: concentration not given here
T3 sequence (whole entry): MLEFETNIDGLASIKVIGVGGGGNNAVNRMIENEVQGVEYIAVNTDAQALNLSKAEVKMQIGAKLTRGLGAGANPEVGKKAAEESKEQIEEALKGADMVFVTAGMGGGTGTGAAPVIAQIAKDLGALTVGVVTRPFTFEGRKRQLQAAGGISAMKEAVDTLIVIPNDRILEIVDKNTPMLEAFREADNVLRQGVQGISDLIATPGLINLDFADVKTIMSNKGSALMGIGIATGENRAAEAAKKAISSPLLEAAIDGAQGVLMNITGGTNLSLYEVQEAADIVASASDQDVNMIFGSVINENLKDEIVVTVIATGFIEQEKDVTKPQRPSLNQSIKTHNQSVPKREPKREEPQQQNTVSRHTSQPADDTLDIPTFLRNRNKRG

[4] = target: T1, Cell division protein FtsZ (Escherichia coli K-12); assay: Inhibition of FtsZ in Escherichia coli assessed as Z-ring containing cells level at 4 and 8 ug/ml (reference value: 88%); set-up: scale not given: the % may be the effect or the level left
[5] = Activation of FtsZ (unknown origin) assessed as increase in enzyme GTPase activity at 30 uM
[6] = Inhibition of FtsZ (unknown origin) assessed as reduction in frequency of Z-rings per unit cell length; conditions: concentration not given here

COc1ccc(/N=C/c2ccc(OC(C)=O)c(OC)c2[N+](=O)[O-])cc1
ID50 [1]: 2.1 µM

COc1c(OC(C)=O)ccc(/C=N/c2c(C(C)C)cccc2C(C)C)c1[N+](=O)[O-]
ID50 [1]: 7.6 µM

CC(C)c1c(O)ccc2c1CC[C@H]1C(C)(C)CCC[C@]21C
MIC [2]: 4 µg/mL

O=C(Oc1cc(OC(=O)c2ccc(O)c(Cl)c2)c2ccccc2c1)c1ccc(O)c(Cl)c1
inhibition [3]: < 20%

NCC[C@H](O)C(=O)N[C@@H]1C[C@H](N)[C@@H](O[C@H]2O[C@H](CN)[C@@H](O)[C@H](O)[C@H]2O)[C@H](O)[C@H]1O[C@H]1O[C@H](CO)[C@@H](O)[C@H](N)[C@H]1O
Activity [4]: 35%

O=C(Oc1cc(OC(=O)c2cc(O)cc(O)c2)c2ccccc2c1)c1cc(O)c(O)c(O)c1
inhibition [3]: < 20%

COc1cc(/C=C/C(=O)CC(=O)/C=C/c2ccc(O)c(OC)c2)ccc1O
Activity [5]: 35%

COc1ccc2cc3[n+](cc2c1OC)CCc1cc2c(cc1-3)OCO2
inhibition [6]: 50%
